Source: patent US20250140406A1, “CLASSIFYING TUMORS AND PREDICTING RESPONSIVENESS” (Oncocyte Corporation, priority 2022, published 2025)
Where two headings read alike, the source gives them in different places.

Columns and labels:
[1] = system: cancer cell lines classified IM, MSL, M; assay: PRISM screen compound sensitivity correlated with IM, MSL and M subtype of cell lines (101 gene signature); assay type: cell-based; conditions: for IM Corr test: correlation of PRISM compound sensitivity with IM subtype correlation; for M Corr test: correlation of PRISM compound sensitivity with M subtype correlation; for MSL Corr test: correlation of PRISM compound sensitivity with MSL subtype correlation
cancer cell lines = assay: Correlation of gene expression with PRISM compound sensitivity across cell lines (gene:compound correlate pairs); assay type: cell-based; set-up: key: Pearson correlation of gene expression with compound sensitivity
Description: This list of genes (based upon gene expression and gene dependency) was analyzed by Pearson correlation with the compound sensitivity data across the training cell lines. Correlation values, p values, q values and local false discovery rates were calculated. This analysis was repeated using the same set of compounds and genes on the test set of cell lines.
A negative correlation means that the importance of the expression of that gene to cell health was linked to increased compound sensitivity. • compound gene dep train pvalue: Measure of significance for this association. • compound gene dep test corr: Correlation of gene dependency with compound sensitivity in the test data set. • TNBCType train: Classification of association of the compound sensitivity with the IM, MSL and M cell line classes in the training data set. • DTIO Corr train: Association of the compound sensitivity with the DetermaIO cell line classes in the training data set. • TNBCType test: Classification of the association of the compound sensitivity with the IM, MSL and M cell line classes in the test data set. • DTIO Corr test: Association of the compound sensitivity with the DetermaIO cell line classes in the test data set.

[2] = system: cancer cell lines, DetermaIO classes; assay: Association of PRISM compound sensitivity with DetermaIO (DTIO) cell line classes; assay type: cell-based
[3] = system: cancer cell lines classified IM, MSL, M; assay: Cancer Therapeutics Response Portal (CTRP) small-molecule sensitivity correlated with IM, MSL and M subtype; assay type: cell-based; conditions: CTRP and PRISM screens; IM class by 101 gene signature
Description: Compound correlations where the correlation was negative, indicating sensitivity to the compound, and with a q value less than 0.05 were assessed.

[4] = system: NSCLC cell lines (xenograft models); conditions: of the 10 NSCLC cell lines, GSE109302; cited from earlier work
[5] = system: Representative Cell Lines of TNBC tumor subtypes; conditions: TNBC subtypes from Lehmann et al.; cited from earlier work
[6] = correlation of PRISM compound sensitivity with DTIO, test cell set
[7] = correlation of PRISM compound sensitivity with DTIO, training cell set
[8] = correlation of compound sensitivity with DetermaIO (DTIO), test set
[9] = correlation of compound sensitivity with DetermaIO (DTIO), training set
[10] = correlation of PRISM compound sensitivity with DTIO (DetermaIO), test cell set (188 cell lines)
[11] = correlation of PRISM compound sensitivity with DTIO (DetermaIO), training cell set (371 cell lines)

CCOC(=O)c1ncc2[nH]c3ccc(OCc4ccccc4)cc3c2c1COC.Cl [ZK-93423]
IM Corr test ([1]; test cell set): 0.2068 | M Corr test ([1]; test cell set): −0.1479 | MSL Corr test ([1]; test cell set): −0.01274 | compound gene test corr (cancer cell lines): −0.2447 | compound gene train corr (cancer cell lines): −0.1712 | DTIO Corr test [2, 6]: 0.1767 | DTIO Corr train [2, 7]: 0.1098 | DTIO Corr test [2, 8]: 0.1767 | DTIO Corr train [2, 9]: 0.1098

C=CC(=O)Nc1cc2c(Nc3ccc(F)c(Cl)c3)ncnc2cc1OCCCN1CCOCC1 [canertinib]
Sensitivity of tumors of the IM class to the compound [3]: especially sensitive

COc1cc(C(=O)NC2CCN(C)CC2)c(F)cc1Nc1ncc(C(F)(F)F)c(Oc2cccc3c2C(=O)N(C)C3)n1 [BI 853520]
Number of NSCLC cell lines resistant to the drug [4]: five | Number of NSCLC cell lines sensitive to the drug [4]: five

CS(=O)(=O)CCNCc1ccc(-c2ccc3ncnc(Nc4ccc(OCc5cccc(F)c5)c(Cl)c4)c3c2)o1 [lapatinib]
Sensitivity of tumors of the IM class to the compound [3]: especially sensitive

Cc1nc(Nc2ncc(C(=O)Nc3c(C)cccc3Cl)s2)cc(N2CCN(CCO)CC2)n1 [Dasantinib]
Tumor subtype whose representative cell lines respond to the treatment [5]: M and MSL

Cn1c(=O)n(-c2ccc(C(C)(C)C#N)cc2)c2c3cc(-c4cnc5ccccc5c4)ccc3ncc21 [NVP-BEX235]
Tumor subtype whose representative cell lines respond to the treatment [5]: M and MSL

COc1cc2c(NC3CCN(C(C)C)CC3)nc(N3CCC(F)(F)CC3)nc2cc1OCCCN1CCCC1 [UNC0642]
IM Corr test ([1]; test cell set (188 cell lines)): −0.2049 | M Corr test ([1]; test cell set (188 cell lines)): 0.1456 | MSL Corr test ([1]; test cell set (188 cell lines)): 0.1789 | compound gene test corr (cancer cell lines): −0.295 | compound gene train corr (cancer cell lines): −0.1787 | DTIO Corr test [2, 10]: −0.1219 | DTIO Corr train [2, 11]: −0.0704 | DTIO Corr test [2, 8]: −0.1219 | DTIO Corr train [2, 9]: −0.0704

N.N.[Cl][Pt][Cl] [Cisplatin]
Tumor subtype whose representative cell lines respond to the treatment [5]: BL1 and BL2

Cc1cc(CN2CCN(c3c(Br)cnc4nc(-c5ccc(N6CCN(C)CC6)cc5)[nH]c34)CC2)no1 [CCT137690]
IM Corr test ([1]; test cell set (188 cell lines)): −0.03424 | M Corr test ([1]; test cell set (188 cell lines)): −0.09289 | MSL Corr test ([1]; test cell set (188 cell lines)): −0.02426 | compound gene train corr (cancer cell lines): −0.1607

CC(O)(CS(=O)(=O)c1ccc(F)cc1)C(=O)Nc1ccc(C#N)c(C(F)(F)F)c1 (stereo not drawn) [Bicalutimide]
Tumor subtype whose representative cell lines respond to the treatment [5]: LAR

CC1(S(=O)(=O)[O-])CC(=O)c2ccccc2C1=O.[Na+] (stereo not drawn) [menadione-bisulfite]
IM Corr test ([1]; test cell set (188 cell lines)): 0.1925 | M Corr test ([1]; test cell set (188 cell lines)): −0.2026 | MSL Corr test ([1]; test cell set (188 cell lines)): −0.1086 | compound gene test corr (cancer cell lines; gene CHL1, test cell lines): −0.2459 | compound gene train corr (cancer cell lines; gene CHL1, training cell lines): −0.1641 | compound gene test corr (cancer cell lines; gene COL19A1, test cell lines): −0.2615 | compound gene train corr (cancer cell lines; gene COL19A1, training cell lines): −0.2071 | compound gene test corr (cancer cell lines; gene DSTYK, test cell lines): −0.2853 | compound gene train corr (cancer cell lines; gene DSTYK, training cell lines): −0.1942 | compound gene test corr (cancer cell lines; gene FCGR2A, test cell lines): −0.2554 | compound gene train corr (cancer cell lines; gene FCGR2A, training cell lines): −0.1722 | compound gene test corr (cancer cell lines; gene FCRLA, test cell lines): −0.2647 | compound gene train corr (cancer cell lines; gene FCRLA, training cell lines): −0.2401 | compound gene test corr (cancer cell lines; gene GHR, test cell lines): −0.2974 | compound gene train corr (cancer cell lines; gene GHR, training cell lines): −0.1701 | compound gene test corr (cancer cell lines; gene LUM, test cell lines): −0.3259 | compound gene train corr (cancer cell lines; gene LUM, training cell lines): −0.1958 | compound gene test corr (cancer cell lines; gene LZTS1, test cell lines): −0.3133 | compound gene train corr (cancer cell lines; gene LZTS1, training cell lines): −0.1907 | compound gene test corr (cancer cell lines; gene NCKAP5L, test cell lines): −0.3161 | compound gene train corr (cancer cell lines; gene NCKAP5L, training cell lines): −0.1648 | compound gene test corr (cancer cell lines; gene P2RX7, test cell lines): −0.2585 | compound gene train corr (cancer cell lines; gene P2RX7, training cell lines): −0.2054 | compound gene test corr (cancer cell lines; gene PLEKHO1, test cell lines): −0.2511 | compound gene train corr (cancer cell lines; gene PLEKHO1, training cell lines): −0.1601 | compound gene test corr (cancer cell lines; gene PLEKHO2, test cell lines): −0.3003 | compound gene train corr (cancer cell lines; gene PLEKHO2, training cell lines): −0.2127 | compound gene test corr (cancer cell lines; gene PLP1, test cell lines): −0.2422 | compound gene train corr (cancer cell lines; gene PLP1, training cell lines): −0.2332 | compound gene test corr (cancer cell lines; gene PLPP7, test cell lines): −0.2843 | compound gene train corr (cancer cell lines; gene PLPP7, training cell lines): −0.1831 | compound gene test corr (cancer cell lines; gene QKI, test cell lines): −0.2736 | compound gene train corr (cancer cell lines; gene QKI, training cell lines): −0.2164 | compound gene test corr (cancer cell lines; gene SYNM, test cell lines): −0.2591 | compound gene train corr (cancer cell lines; gene SYNM, training cell lines): −0.1742 | compound gene test corr (cancer cell lines; gene TAMALIN, test cell lines): −0.254 | compound gene train corr (cancer cell lines; gene TAMALIN, training cell lines): −0.1641 | compound gene test corr (cancer cell lines; gene WWTR1, test cell lines): −0.2508 | compound gene train corr (cancer cell lines; gene WWTR1, training cell lines): −0.1794 | compound gene test corr (cancer cell lines; gene ZCCHC24, test cell lines): −0.3161 | compound gene train corr (cancer cell lines; gene ZCCHC24, training cell lines): −0.1708 | DTIO Corr test [2, 6]: 0.1362 | DTIO Corr train [2, 7]: 0.003549 | DTIO Corr test ([2]; test set): 0.1362 | DTIO Corr train ([2]; training set): 0.003549

Cc1occc(=O)c1[O-].Cc1occc(=O)c1[O-].[O]=[V+2] [bis(maltolato)oxovanadium(IV)]
compound gene train corr (cancer cell lines): −0.1081

C=CC(=O)Nc1cccc(Sc2nc(Nc3ccc(N4CCN(C)CC4)cc3)ncc2Cl)c1 [WZ8040]
IM Corr test ([1]; test cell set (188 cell lines)): −0.07504 | M Corr test ([1]; test cell set (188 cell lines)): 0.1805 | MSL Corr test ([1]; test cell set (188 cell lines)): 0.2895 | DTIO Corr test [2, 10]: 0.0423 | DTIO Corr train [2, 11]: −0.1387

O=Nc1ccc(O)c2ncccc12 [NSC-3852]
IM Corr test ([1]; test cell set (188 cell lines)): 0.06425 | M Corr test ([1]; test cell set (188 cell lines)): −0.1666 | MSL Corr test ([1]; test cell set (188 cell lines)): −0.09058 | DTIO Corr test [2, 6]: −0.00012 | DTIO Corr train [2, 7]: 0.09356 | DTIO Corr test ([2]; correlation of compound sensitivity with DTIO, test set): −0.00012 | DTIO Corr train ([2]; correlation of compound sensitivity with DTIO, training set): 0.09356

Cc1ccc(Sc2cncc3sc(C(N)=O)cc23)cc1 [A205804]
IM Corr test ([1]; test cell set (188 cell lines)): −0.1562 | M Corr test ([1]; test cell set (188 cell lines)): 0.1655 | MSL Corr test ([1]; test cell set (188 cell lines)): 0.07391 | DTIO Corr test [2, 10]: −0.1235 | DTIO Corr train [2, 11]: −0.1273

CC(C)(CCCCCCCCCCC(C)(C)CC(=O)O)CC(=O)O [medica-16]
IM Corr test ([1]; test cell set (188 cell lines)): −0.06152 | M Corr test ([1]; test cell set (188 cell lines)): 0.01613 | MSL Corr test ([1]; test cell set (188 cell lines)): −0.1086 | TNBCType train ([1]; subtype (IM, MSL or M) assigned to the compound by negative correlation of PRISM sensitivity with subtype, training cell set (371 cell lines), 101 gene signature): MSL | DTIO Corr test [2, 10]: 0.004343 | DTIO Corr train [2, 11]: −0.05017
